Tests used:
Experiment in all cases: relative viability (nuclei count vs DMSO), 5 days (fraction); higher = more cells survive
201T = system: 201T
Summary of the method: (§1)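 Relative viability equals treated-well nuclei counts divided by vehicle-well nuclei counts. Counts came from 4× images of lung cancer cell lines grown in 1536-well plates for 5 days after pin-tool dosing on the day after seeding. Dosing used one drug alone or a fixed anchor-drug dose plus five library-drug doses (not always all listed) in √10 steps, and values are medians of duplicate plates.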

HCC-827 = system: HCC-827
Summary of the method: as §1

RERF-LC-KJ = system: RERF-LC-KJ
Summary of the method: as §1

NCI-H2087 = system: NCI-H2087
Summary of the method: as §1

NCI-H1915 = system: NCI-H1915
Summary of the method: as §1

NCI-H1666 = system: NCI-H1666
Summary of the method: as §1

PC-14 = system: PC-14
Summary of the method: as §1

NCI-H520 = system: NCI-H520
Summary of the method: as §1

NCI-H647 = system: NCI-H647
Summary of the method: as §1

H3255 = system: H3255
Summary of the method: as §1

HCC-78 = system: HCC-78
Summary of the method: as §1

NCI-H23 = system: NCI-H23
Summary of the method: as §1

NCI-H2347 = system: NCI-H2347
Summary of the method: as §1

COR-L 105 = system: COR-L 105
Summary of the method: as §1

NCI-H2405 = system: NCI-H2405
Summary of the method: as §1

NCI-H2126 = system: NCI-H2126
Summary of the method: as §1

LC-2-ad = system: LC-2-ad
Summary of the method: as §1

EPLC-272H = system: EPLC-272H
Summary of the method: as §1

LCLC-97TM1 = system: LCLC-97TM1
Summary of the method: as §1

ChaGo-K-1 = system: ChaGo-K-1
Summary of the method: as §1

## CCN(CC)CCCCNc1ncc2cc(-c3cc(OC)cc(OC)c3)c(NC(=O)NC(C)(C)C)nc2n1 + CC1(C)CCC(c2ccc(Cl)cc2)=C(CN2CCN(c3ccc(C(=O)NS(=O)(=O)c4ccc(N[C@H](CCN5CCOCC5)CSc5ccccc5)c(S(=O)(=O)C(F)(F)F)c4)cc3)CC2)C1 [Navitoclax] (partner 0.5 µM)
201T; first compound 0.01 µM
  relative viability: 1.17
201T; first compound 0.03162 µM
  relative viability: 1.21
201T; first compound 0.1 µM
  relative viability: 1.24
201T; first compound 0.3162 µM
  relative viability: 1.23
201T; first compound 1 µM
  relative viability: 1.19
HCC-827; first compound 0.01 µM
  relative viability: 1.06
HCC-827; first compound 0.03162 µM
  relative viability: 0.981
HCC-827; first compound 0.1 µM
  relative viability: 1.05
HCC-827; first compound 0.3162 µM
  relative viability: 0.993
HCC-827; first compound 1 µM
  relative viability: 1.02
RERF-LC-KJ; first compound 0.01 µM
  relative viability: 0.996
RERF-LC-KJ; first compound 0.03162 µM
  relative viability: 0.851
RERF-LC-KJ; first compound 0.1 µM
  relative viability: 0.925
RERF-LC-KJ; first compound 0.3162 µM
  relative viability: 1.09
RERF-LC-KJ; first compound 1 µM
  relative viability: 0.997
NCI-H2087; first compound 0.01 µM
  relative viability: 1.15
NCI-H2087; first compound 0.03162 µM
  relative viability: 1.12
NCI-H2087; first compound 0.1 µM
  relative viability: 1.35
NCI-H2087; first compound 0.3162 µM
  relative viability: 1.23
NCI-H2087; first compound 1 µM
  relative viability: 0.986
NCI-H1915; first compound 0.01 µM
  relative viability: 0.826
NCI-H1915; first compound 0.03162 µM
  relative viability: 0.795
NCI-H1915; first compound 0.1 µM
  relative viability: 0.838
NCI-H1915; first compound 0.3162 µM
  relative viability: 0.749
NCI-H1915; first compound 1 µM
  relative viability: 0.805
NCI-H1666; first compound 0.01 µM
  relative viability: 1.03
NCI-H1666; first compound 0.03162 µM
  relative viability: 1.02
NCI-H1666; first compound 0.1 µM
  relative viability: 0.972
NCI-H1666; first compound 0.3162 µM
  relative viability: 1.12
NCI-H1666; first compound 1 µM
  relative viability: 0.871
PC-14; first compound 0.01 µM
  relative viability: 1.11
PC-14; first compound 0.03162 µM
  relative viability: 1.06
PC-14; first compound 0.1 µM
  relative viability: 1.15
PC-14; first compound 0.3162 µM
  relative viability: 1.01
PC-14; first compound 1 µM
  relative viability: 0.985
NCI-H520; first compound 0.01 µM
  relative viability: 1.08
NCI-H520; first compound 0.03162 µM
  relative viability: 1.08
NCI-H520; first compound 0.1 µM
  relative viability: 1.31
NCI-H520; first compound 0.3162 µM
  relative viability: 1.09
NCI-H520; first compound 1 µM
  relative viability: 0.419
NCI-H647; first compound 0.01 µM
  relative viability: 1.12
NCI-H647; first compound 0.03162 µM
  relative viability: 1.14
NCI-H647; first compound 0.1 µM
  relative viability: 1.41
NCI-H647; first compound 0.3162 µM
  relative viability: 1.21
NCI-H647; first compound 1 µM
  relative viability: 0.929
H3255; first compound 0.01 µM
  relative viability: 0.496
H3255; first compound 0.03162 µM
  relative viability: 0.413
H3255; first compound 0.1 µM
  relative viability: 0.65
H3255; first compound 0.3162 µM
  relative viability: 0.729
H3255; first compound 1 µM
  relative viability: 0.502
HCC-78; first compound 0.03162 µM
  relative viability: 0.75
HCC-78; first compound 0.1 µM
  relative viability: 0.618
HCC-78; first compound 0.3162 µM
  relative viability: 0.809
HCC-78; first compound 1 µM
  relative viability: 0.64
NCI-H23; first compound 0.01 µM
  relative viability: 0.744
NCI-H23; first compound 0.03162 µM
  relative viability: 0.85
NCI-H23; first compound 0.1 µM
  relative viability: 1.09
NCI-H23; first compound 0.3162 µM
  relative viability: 0.921
NCI-H23; first compound 1 µM
  relative viability: 0.843
NCI-H2347; first compound 0.01 µM
  relative viability: 0.817
NCI-H2347; first compound 0.03162 µM
  relative viability: 0.823
NCI-H2347; first compound 0.1 µM
  relative viability: 0.762
NCI-H2347; first compound 0.3162 µM
  relative viability: 0.833
NCI-H2347; first compound 1 µM
  relative viability: 0.676
COR-L 105; first compound 0.01 µM
  relative viability: 0.811
COR-L 105; first compound 0.03162 µM
  relative viability: 0.81
COR-L 105; first compound 0.1 µM
  relative viability: 0.83
COR-L 105; first compound 0.3162 µM
  relative viability: 0.872
COR-L 105; first compound 1 µM
  relative viability: 0.883
NCI-H2405; first compound 0.01 µM
  relative viability: 0.707
NCI-H2405; first compound 0.03162 µM
  relative viability: 0.772
NCI-H2405; first compound 0.1 µM
  relative viability: 0.853
NCI-H2405; first compound 0.3162 µM
  relative viability: 0.901
NCI-H2405; first compound 1 µM
  relative viability: 0.789
NCI-H2126; first compound 0.01 µM
  relative viability: 0.904
NCI-H2126; first compound 0.03162 µM
  relative viability: 0.845
NCI-H2126; first compound 0.1 µM
  relative viability: 0.916
NCI-H2126; first compound 0.3162 µM
  relative viability: 0.927
NCI-H2126; first compound 1 µM
  relative viability: 0.828
LC-2-ad; first compound 0.01 µM
  relative viability: 0.425
LC-2-ad; first compound 0.03162 µM
  relative viability: 0.372
LC-2-ad; first compound 0.1 µM
  relative viability: 0.558
LC-2-ad; first compound 0.3162 µM
  relative viability: 0.511
LC-2-ad; first compound 1 µM
  relative viability: 0.487
EPLC-272H; first compound 0.01 µM
  relative viability: 1.14
EPLC-272H; first compound 0.1 µM
  relative viability: 1.07
EPLC-272H; first compound 0.3162 µM
  relative viability: 1.29
EPLC-272H; first compound 1 µM
  relative viability: 0.995
LCLC-97TM1; first compound 0.03162 µM
  relative viability: 0.356
LCLC-97TM1; first compound 0.1 µM
  relative viability: 0.503
LCLC-97TM1; first compound 0.3162 µM
  relative viability: 0.435
LCLC-97TM1; first compound 1 µM
  relative viability: 0.4
ChaGo-K-1; first compound 0.01 µM
  relative viability: 0.844
ChaGo-K-1; first compound 0.03162 µM
  relative viability: 0.893
ChaGo-K-1; first compound 0.1 µM
  relative viability: 1.49
ChaGo-K-1; first compound 0.3162 µM
  relative viability: 1.16
ChaGo-K-1; first compound 1 µM
  relative viability: 0.716
